Where “and” joins values, the source holds several entries; their conditions need not be identical. Equal entries are not always repeated. Where a SMILES comes first, the peptide text is derived from it. [ ]: non-standard residue; d: D form. Hyp = O=C(O)[C@@H]1C[C@@H](O)CN1
Tests used:
IL-6 = test: Example 9 Luminex, LPS hPBMCs: IL-6; format: cell-based, human; conditions: Bead IL-6, PBMC + LPS(5 ug/ml)
Method: (§1) Treatment Human PBMCs were pretreated with YY-101, YDE-011 and YDE-043 or reference compound; Xiidra® at various concentration (ranging from 1 nM to 100 uM) for 2 h before stimulation. An equal volume of 0.5% DMSO was used as a vehicle control. Then, the cells were treated with LPS at 5 ug/ml. The supernatants from treated cells were harvested at 24 h and placed in a 96 well for Luminex cytokine & chemokine profiling using a Luminex 200 multiplex assay (Luminex; R&D system, USA).
(§2) The main study arm with triplicate wells per group in a 24-well plate: • 1. Blank • 2. PBMC: 0.5% DMSO • 3. PBMC+LPS (5 ug/ml) • 4. PBMC+YY-101 100 uM • 5. PBMC+YY-101 10 uM • 6. PBMC+YY-101 1 uM • 7. PBMC+YY-101 0.1 uM • 8. PBMC+YY-101 0.01 uM • 9. PBMC+LPS (5 ug/ml)+Xiidra®100 uM • 10. PBMC+LPS (5 ug/ml)+Xiidra® 10 uM • 11. PBMC+LPS (5 ug/ml)+Xiidra® 1 uM • 12. PBMC+LPS (5 ug/ml)+Xiidra®0.1 uM • 13. PBMC+LPS (5 ug/ml)+Xiidra®0.01 uM • 14. PBMC+LPS (5 ug/ml)+Xiidra®0.001 uM • 15. PBMC+LPS (5 ug/ml)+YY-101 100 uM • 16. PBMC+LPS (5 ug/ml)+YY-101 10 uM • 17. PBMC+LPS (5 ug/ml)+YY-101 1 uM • 18. PBMC+LPS (5 ug/ml)+YY-101 0.1 uM • 19. PBMC+LPS (5 ug/ml)+YY-101 0.01 uM • 20. PBMC+LPS (5 ug/ml)+YY-101 0.001 uM • 21. PBMC+LPS (5 ug/ml)+YDE-011 100 uM • 22. PBMC+LPS (5 ug/ml)+YDE-011 10 uM • 23. PBMC+LPS (5 ug/ml)+YDE-011 1 uM • 24. PBMC+LPS (5 ug/ml)+YDE-011 0.1 uM • 25. PBMC+LPS (5 ug/ml)+YDE-011 0.01 uM • 26. PBMC+LPS (5 ug/ml)+YDE-011 0.001 uM • 27. PBMC+LPS (5 ug/ml)+YDE-043 100 uM • 28. PBMC+LPS (5 ug/ml)+YDE-043 10 uM • 29. PBMC+LPS (5 ug/ml)+YDE-043 1 uM • 30. PBMC+LPS (5 ug/ml)+YDE-043 0.1 uM • 31. PBMC+LPS (5 ug/ml)+YDE-043 0.01 uM • 32. PBMC+LPS (5 ug/ml)+YDE-043 0.001 uM
(§3) Multiplex assay was used to measure 30 cytokines and chemokines. The 1:2, 1:10 and 1:200 diluted cell supernatant and serial dilution of the standard were dispensed into a 96 well plate at 50 ul/well. Then, the pre-mixed cocktail of antibody-coated magnetic beads was dispensed at 50 ul/well and incubated at room temperature for 2 h in a horizontal orbital microplate shaker at 800±500 rpm. The beads were washed using a magnetic device to prevent loss. The biotin-antibody was dispensed in 50 ul of each well and incubated at room temperature for 1 h in a shaker at 800±500 rpm. After washing, streptavidin-PE was added at 50 ul/well and incubated at room temperature for 30 min in a shaker under the same conditions. Finally, after washing, wash buffer (100 ul/well) was added to the plate and incubated in a shaker for 2 min. The Luminex™ 200 setting were set according to the manufacturer's protocol. The data was calculated with a standard five-parameter logistic nonlinear regression analysis of the data (xPonent software 4.2, USA). The levels of cytokine/chemokine are normalized to the live cell counts (1×10^5 cells/mL) and presented as concentrations per mL (pg/mL or ng/mL).

IL-1 alpha = test: Example 9 Luminex, LPS hPBMCs: IL-1 alpha; format: cell-based, human; conditions: IL-1 alpha, replicates and Mean
Method: as §1, §2, §3

[1] = PBMC + LPS(5 ug/ml) + YDE043 0.001 uM
[2] = PBMC + LPS(5 ug/ml) + YDE043 0.001 uM, mean
[3] = PBMC + LPS(5 ug/ml) + YDE043 0.01 uM
[4] = PBMC + LPS(5 ug/ml) + YDE043 0.01 uM, mean
[5] = PBMC + LPS(5 ug/ml) + YDE043 0.1 uM
[6] = PBMC + LPS(5 ug/ml) + YDE043 0.1 uM, mean
[7] = PBMC + LPS(5 ug/ml) + YDE043 1 uM
[8] = PBMC + LPS(5 ug/ml) + YDE043 1 uM, mean
[9] = PBMC + LPS(5 ug/ml) + YDE043 10 uM
[10] = PBMC + LPS(5 ug/ml) + YDE043 10 uM, mean
[11] = PBMC + LPS(5 ug/ml) + YDE043 100 uM
[12] = PBMC + LPS(5 ug/ml) + YDE043 100 uM, mean

Question: With `CC(C)C[C@H](NC(=O)[C@H](CCC(N)=O)NC(=O)CNC(=O)[C@@H]1C[C@@H](O)CN1)C(=O)NCC(=O)O` [YDE-043] (H-[Hyp]GQLG-OH; N-terminus and C-terminus assumed) as the compound, how does the Concentration (IL-6; 0.001 uM, Mean) read?
Answer: 7090.4 pg/mL

Question: And the MFI (IL-6; 0.001 uM, Mean)?
Answer: 197.1

Question: What about the conc/live cell (IL-6; 0.001 uM, Mean) of the same compound?
Answer: 1434.2 pg/10^5

Question: What about the Concentration (IL-6; 0.001 uM, single replicates) of the same compound?
Answer: 6355.1 pg/mL and 7578.4 pg/mL and 7337.9 pg/mL

Question: What about the MFI (IL-6; 0.001 uM, single replicates) of the same compound?
Answer: 175.8 and 211.3 and 204.3

Question: What about the conc/live cell (IL-6; 0.001 uM, single replicates) of the same compound?
Answer: 1444.3 pg/10^5 and 1263.1 pg/10^5 and 1595.2 pg/10^5

Question: What about the Concentration (IL-6; 0.01 uM, Mean) of the same compound?
Answer: 6942.0 pg/mL

Question: What about the MFI (IL-6; 0.01 uM, Mean) of the same compound?
Answer: 192.8

Question: What about the conc/live cell (IL-6; 0.01 uM, Mean) of the same compound?
Answer: 1327.4 pg/10^5

Question: And the Concentration (IL-6; 0.01 uM, single replicates)?
Answer: 7062.6 pg/mL and 7011.0 pg/mL and 6752.4 pg/mL

Question: And the MFI (IL-6; 0.01 uM, single replicates)?
Answer: 196.3 and 194.8 and 187.3

Question: And the conc/live cell (IL-6; 0.01 uM, single replicates)?
Answer: 1569.5 pg/10^5 and 1062.3 pg/10^5 and 1350.5 pg/10^5

Question: What about the Concentration (IL-6; 0.1 uM, Mean) of the same compound?
Answer: 6590.8 pg/mL

Question: What about the MFI (IL-6; 0.1 uM, Mean) of the same compound?
Answer: 182.6

Question: What about the conc/live cell (IL-6; 0.1 uM, Mean) of the same compound?
Answer: 1223.6 pg/10^5

Question: And the Concentration (IL-6; 0.1 uM, single replicates)?
Answer: 6528.0 pg/mL and 6147.3 pg/mL and 7097.1 pg/mL

Question: What about the MFI (IL-6; 0.1 uM, single replicates) of the same compound?
Answer: 180.8 and 169.8 and 197.3

Question: And the conc/live cell (IL-6; 0.1 uM, single replicates)?
Answer: 1305.6 pg/10^5 and 1097.7 pg/10^5 and 1267.3 pg/10^5

Question: What about the Concentration (IL-6; 1 uM, Mean) of the same compound?
Answer: 6992.5 pg/mL

Question: What about the MFI (IL-6; 1 uM, Mean) of the same compound?
Answer: 194.3

Question: And the conc/live cell (IL-6; 1 uM, Mean)?
Answer: 1321.1 pg/10^5

Question: And the Concentration (IL-6; 1 uM, single replicates)?
Answer: 7131.5 pg/mL and 6164.6 pg/mL and 7681.3 pg/mL

Question: And the MFI (IL-6; 1 uM, single replicates)?
Answer: 198.3 and 170.3 and 214.3

Question: What about the conc/live cell (IL-6; 1 uM, single replicates) of the same compound?
Answer: 1229.6 pg/10^5 and 1284.3 pg/10^5 and 1449.3 pg/10^5

Question: And the Concentration (IL-6; 10 uM, Mean)?
Answer: 9513.9 pg/mL

Question: And the MFI (IL-6; 10 uM, Mean)?
Answer: 268.1

Question: What about the conc/live cell (IL-6; 10 uM, Mean) of the same compound?
Answer: 1764.4 pg/10^5

Question: What about the Concentration (IL-6; 10 uM, single replicates) of the same compound?
Answer: 7303.5 pg/mL and 14554.8 pg/mL and 6683.4 pg/mL

Question: What about the MFI (IL-6; 10 uM, single replicates) of the same compound?
Answer: 203.3 and 415.8 and 185.3

Question: What about the conc/live cell (IL-6; 10 uM, single replicates) of the same compound?
Answer: 1404.5 pg/10^5 and 2695.3 pg/10^5 and 1193.5 pg/10^5

Question: And the Concentration (IL-6; 100 uM, Mean)?
Answer: 7286.3 pg/mL

Question: What about the MFI (IL-6; 100 uM, Mean) of the same compound?
Answer: 202.8

Question: And the conc/live cell (IL-6; 100 uM, Mean)?
Answer: 1157.1 pg/10^5

Question: And the Concentration (IL-6; 100 uM, single replicates)?
Answer: 7389.4 pg/mL and 7183.1 pg/mL

Question: What about the MFI (IL-6; 100 uM, single replicates) of the same compound?
Answer: 205.8 and 199.8

Question: What about the conc/live cell (IL-6; 100 uM, single replicates) of the same compound?
Answer: 1191.8 pg/10^5 and 1122.4 pg/10^5

Question: And the Concentration (IL-1 alpha; [1])?
Answer: 339.1 pg/mL and 369.6 pg/mL and 357.7 pg/mL

Question: What about the conc/live cell (IL-1 alpha; [1]) of the same compound?
Answer: 77.1 pg/10^5 and 61.6 pg/10^5 and 77.8 pg/10^5

Question: And the Concentration (IL-1 alpha; [2])?
Answer: 355.5 pg/mL

Question: What about the conc/live cell (IL-1 alpha; [2]) of the same compound?
Answer: 72.1 pg/10^5

Question: And the Concentration (IL-1 alpha; [3])?
Answer: 352.5 pg/mL and 342.5 pg/mL and 370.4 pg/mL

Question: What about the conc/live cell (IL-1 alpha; [3]) of the same compound?
Answer: 78.3 pg/10^5 and 51.9 pg/10^5 and 74.1 pg/10^5

Question: What about the Concentration (IL-1 alpha; [4]) of the same compound?
Answer: 355.1 pg/mL

Question: And the conc/live cell (IL-1 alpha; [4])?
Answer: 68.1 pg/10^5

Question: And the Concentration (IL-1 alpha; [5])?
Answer: 361.4 pg/mL and 329.0 pg/mL and 382.6 pg/mL

Question: And the conc/live cell (IL-1 alpha; [5])?
Answer: 72.3 pg/10^5 and 58.8 pg/10^5 and 68.3 pg/10^5

Question: And the Concentration (IL-1 alpha; [6])?
Answer: 357.7 pg/mL

Question: And the conc/live cell (IL-1 alpha; [6])?
Answer: 66.5 pg/10^5

Question: And the Concentration (IL-1 alpha; [7])?
Answer: 344.7 pg/mL and 332.4 pg/mL and 338.7 pg/mL

Question: What about the conc/live cell (IL-1 alpha; [7]) of the same compound?
Answer: 59.4 pg/10^5 and 69.2 pg/10^5 and 63.9 pg/10^5

Question: And the Concentration (IL-1 alpha; [8])?
Answer: 338.6 pg/mL

Question: What about the conc/live cell (IL-1 alpha; [8]) of the same compound?
Answer: 64.2 pg/10^5

Question: And the Concentration (IL-1 alpha; [9])?
Answer: 357.4 pg/mL and 342.1 pg/mL and 351.0 pg/mL

Question: What about the conc/live cell (IL-1 alpha; [9]) of the same compound?
Answer: 68.7 pg/10^5 and 63.3 pg/10^5 and 62.7 pg/10^5

Question: What about the Concentration (IL-1 alpha; [10]) of the same compound?
Answer: 350.2 pg/mL

Question: And the conc/live cell (IL-1 alpha; [10])?
Answer: 64.9 pg/10^5

Question: And the Concentration (IL-1 alpha; [11])?
Answer: 454.5 pg/mL and 414.4 pg/mL

Question: What about the conc/live cell (IL-1 alpha; [11]) of the same compound?
Answer: 73.3 pg/10^5 and 64.7 pg/10^5

Question: And the Concentration (IL-1 alpha; [12])?
Answer: 434.4 pg/mL

Question: What about the conc/live cell (IL-1 alpha; [12]) of the same compound?
Answer: 69.0 pg/10^5
